Data as given in ChEMBL document CHEMBL1121497, “Studies on cardiovascular agents. 6. Synthesis and coronary vasodilating and antihypertensive activities of 1,2,4-triazolo[1,5-a]pyrimidines fused to heterocyclic systems” (1980).

Assays:
Canis familiaris [1] = experiment: Percent increase in coronary blood flow in anesthetized dogs after intravenous administration at 0.1 mg/kg; assay type: functional, Canis lupus familiaris, Artery
Canis familiaris [2] = experiment: Increase in coronary blood flow in anesthetized dogs was measured relative to trapidil (1 mg/kg) after intravenous administration of 0.3 mg/kg; assay type: functional, Canis lupus familiaris, Artery
Canis familiaris [3] = experiment: Time taken for increase in coronary blood flow in anesthetized dogs after intravenous administration at 1 mg/kg; assay type: functional, Canis lupus familiaris, Blood/Heart
Canis familiaris [4] = experiment: Increase in coronary blood flow in anesthetized dogs was measured relative to trapidil (1 mg/kg) after intravenous administration of 0.1 mg/kg; assay type: functional, Canis lupus familiaris, Artery
Rattus norvegicus = experiment: Hypotensive index (HI) measured as the area under the time-hypotensive response curve for 6-h period at 30 mg/kg, po; assay type: functional
Canis familiaris [5] = experiment: Maximum percent decrease in mean blood pressure in anesthetized dogs after intravenous administration at 1 mg/kg; assay type: functional, Canis lupus familiaris
Canis familiaris [6] = experiment: Time taken for increase in coronary blood flow in anesthetized dogs after intravenous administration at 0.3 mg/kg; assay type: functional, Canis lupus familiaris, Blood/Heart
Canis familiaris [7] = experiment: Percent increase in coronary blood flow in anesthetized dogs after intravenous administration at 0.3 mg/kg; assay type: functional, Canis lupus familiaris, Artery
Canis familiaris [8] = experiment: Percent increase in coronary blood flow in anesthetized dogs after intravenous administration at 1 mg/kg (p<0.05); assay type: functional, Canis lupus familiaris, Artery
Canis familiaris [9] = experiment: Time taken for increase in coronary blood flow in anesthetized dogs after intravenous administration at 0.1 mg/kg; assay type: functional, Canis lupus familiaris, Blood/Heart
Cavia porcellus [10] = species on record: Cavia porcellus; experiment: Integrated vasodilating potency (IVP) (the product of compound-induced maximum percent decrease in the perfusion pressure and the duration of the effect in minutes at 100 ug (ia)); assay type: functional
Canis familiaris [11] = experiment: Increase in coronary blood flow in anesthetized dogs was measured relative to trapidil (1 mg/kg) after intravenous administration of 1 mg/kg; assay type: functional, Canis lupus familiaris, Artery
Canis familiaris [12] = experiment: Maximum percent decrease in mean blood pressure in anesthetized dogs after intravenous administration at 0.3 mg/kg; assay type: functional, Canis lupus familiaris
Canis familiaris [13] = experiment: Maximum percent decrease in mean blood pressure in anesthetized dogs after intravenous administration at 0.1 mg/kg; assay type: functional, Canis lupus familiaris
Cavia porcellus [14] = species on record: Cavia porcellus; experiment: Integrated vasodilating potency (the product of compound-induced maximum percent decrease in the perfusion pressure and the duration of the effect in minutes at 100 ug (ia); Coronary vasoconstricting action); assay type: functional
Cavia porcellus [15] = species on record: Cavia porcellus; experiment: Integrated vasodilating potency is the product of compound-induced maximum percent decrease in the perfusion pressure and the duration of the effect in minutes at 100 ug (ia); assay type: functional

Row | SMILES | HI (Rattus norvegicus) | IVP (Cavia porcellus [14]) | further results
1 | Cc1nc2ncnn2c2c1CCN2C(C)(C)C [BUMEPIDIL] | 181 | – | Max (Canis familiaris [1]): 34.7%; Relative potency (Canis familiaris [2]): 3.8; Duration (Canis familiaris [3]): 10.6 min; Relative potency (Canis familiaris [4]): 0.7; Decrease (Canis familiaris [5]): -32.3%; Duration (Canis familiaris [6]): 9.3 min; Max (Canis familiaris [7]): 132.3%; Max (Canis familiaris [8]): 219.8%; Duration (Canis familiaris [9]): 4.3 min; IVP (Cavia porcellus [10]): 815; Relative potency (Canis familiaris [11]): 8.4; Decrease (Canis familiaris [12]): -11.7%; Decrease (Canis familiaris [13]): -3.3%
2 | COc1ccc(-c2nc3nc(C)c4c(n3n2)N(C(C)C)CC4)cc1 | 0 | Coronary vasoconstricting action | –
3 | CCCCCCCN1CCc2c(C)nc3ncnn3c21 | 30 | – | IVP (Cavia porcellus [15]): 184
4 | Cc1nc2ncnn2c2c1CCN2CC(O)CO (stereo not given) | 15 | Coronary vasoconstricting action | –
5 | Cc1nc2ncnn2c2c1CCCN2Cc1ccccc1Cl | 10 | Coronary vasoconstricting action | –
6 | Cc1nc2nc(-c3ccc(Cl)cc3)nn2c2c1CCN2CCCN1CCCC1 | 0 | Coronary vasoconstricting action | –
7 | Cc1nc2nc(-c3ccc(Cl)cc3)nn2c2c1CCN2C(C)(C)C | 10 | Coronary vasoconstricting action | –
8 | COc1cc(-c2nc3nc(C)c4c(n3n2)N(Cc2ccccc2Cl)CC4)cc(OC)c1OC | 0 | Coronary vasoconstricting action | –
9 | Cc1nc2nc(-c3ccccc3)nn2c2c1CCN2Cc1ccccc1F | 8 | Coronary vasoconstricting action | –
